Source: paper PMC9098913, “In vitro reconstitution of Escherichia coli divisome activation” (Nature Communications, 2022)

System: FtsA self-interaction
Experiment: FRET self-interaction of His-tagged FtsAs (and His-SUMO control) on Tris-NTA membranes
Type: binding, E. coli
Protocol: To study colocalization of His-tagged variants of FtsA, 0.5–1 µM of Cy5 labelled His-tagged FtsAs were added to the chamber, incubated for 20 min and washed 6x with reaction buffer. […] To control the density of membrane-bound FtsA, SUVs without and with Tris-NTA lipids were mixed to obtain the respective Tris-NTA concentrations. To perform FRET/FRAP experiments, equimolar concentrations of Cy3 and Cy5 labelled His-tagged FtsAs (total 0.5–1 µM) or His-SUMO-Cys were added to a chamber and treated as above. […] FRAP experiments were performed as described before.
Bleaching the acceptor dye leads to an increase in the donor intensity, which can be used to quantify the Foerster Resonance energy transfer (FRET)[48]. FRET efficiency was quantified with E%=Ipost/Ipost+Ipre⋅100 , where Ipost is the intensity of the […] and Ipre is the […]. […] To extract the contribution of both processes, we adjusted a routine recently published by Gerganova et al.[33]. In short, the code provides the contribution of both modes of recovery by analysing the shape of the fluorescence recovery profile. […] Contribution of diffusion leads to a change of the slope of the outer borders of the bleached region (S4h right). Thus, by measuring the change of the slope of the border recovery, diffusion and simple on/off binding can be distinguished. We developed “FRAPdiff”, a graphical user interface, which uses the original fit routine by David Rutkowski. It can be used directly on.tiff movies with annotated bleach regions as ImageJ ROIs. In addition, we added optional bleach correction, user selectable projection axis (x or y), and optional mirroring of the recovery profiles, if bleaching was not symmetric. The original fit routine for estimating the recovery and diffusion dynamics can be found at https://github.com/davidmrutkowski/1DReflectingDiffusion. FRAPdiff is available at 10.5281/zenodo.6400639[49] under the GPLv3 open-source license.

FtsA-His6: FtsA WT (1-405) with amphipathic helix replaced by C-terminal His-tag
FRET efficiency (0.1% Tris NTA, + FtsZ; Exp1): 3.78%
FRET efficiency (0.1% Tris NTA, + FtsZ; Exp2): 0.99%
FRET efficiency (0.1% Tris NTA, + FtsZ; mean, n = 2): 2.39%
FRET efficiency (0.1% Tris NTA, without FtsZ; Exp1): 3.14%
FRET efficiency (0.1% Tris NTA, without FtsZ; Exp2): 0.59%
FRET efficiency (0.1% Tris NTA, without FtsZ; mean, n = 2): 1.87%
FRET efficiency (0.4% Tris NTA; + FtsZ; Exp1): 6.34%
FRET efficiency (0.4% Tris NTA; + FtsZ; Exp2): 13.91%
FRET efficiency (0.4% Tris NTA; + FtsZ; Mean, n = 2): 10.12%
FRET efficiency (0.4% Tris NTA; without FtsZ; Exp1): 8.25%
FRET efficiency (0.4% Tris NTA; without FtsZ; Exp2): 10.75%
FRET efficiency (0.4% Tris NTA; without FtsZ; Mean, n = 2): 9.50%
FRET efficiency (0.6% Tris NTA; + FtsZ; Exp1): 12.72%
FRET efficiency (0.6% Tris NTA; + FtsZ; Exp2): 16.89%
FRET efficiency (0.6% Tris NTA; + FtsZ; Exp3): 21.31%
FRET efficiency (0.6% Tris NTA; + FtsZ; Mean, n = 3): 16.97%
FRET efficiency (0.6% Tris NTA; without FtsZ; Exp1): 13.98%
FRET efficiency (0.6% Tris NTA; without FtsZ; Exp2): 15.14%
FRET efficiency (0.6% Tris NTA; without FtsZ; Exp3): 19.21%
FRET efficiency (0.6% Tris NTA; without FtsZ; Mean, n = 3 (His6-SUMO n = 2)): 16.11%
FRET efficiency (0.8% Tris NTA; + FtsZ; Exp1): 13.61%
FRET efficiency (0.8% Tris NTA; + FtsZ; Exp2): 19.13%
FRET efficiency (0.8% Tris NTA; + FtsZ; Exp3): 15.44%
FRET efficiency (0.8% Tris NTA; + FtsZ; Mean, n = 3): 16.06%
FRET efficiency (0.8% Tris NTA; without FtsZ; Exp1): 14.15%
FRET efficiency (0.8% Tris NTA; without FtsZ; Exp2): 18.41%
FRET efficiency (0.8% Tris NTA; without FtsZ; Exp3): 13.88%
FRET efficiency (0.8% Tris NTA; without FtsZ; Mean, n = 3 (His6-SUMO n = 2)): 15.48%
FRET efficiency (1% Tris NTA; + FtsZ; Exp1): 18.34%
FRET efficiency (1% Tris NTA; + FtsZ; Exp2): 21.19%
FRET efficiency (1% Tris NTA; + FtsZ; Exp3): 19.01%
FRET efficiency (1% Tris NTA; + FtsZ; Mean, n = 3 (R286W-His6 n = 4)): 19.51%
FRET efficiency (1% Tris NTA; without FtsZ; Exp1): 16.93%
FRET efficiency (1% Tris NTA; without FtsZ; Exp2): 19.88%
FRET efficiency (1% Tris NTA; without FtsZ; Exp3): 16.24%
FRET efficiency (1% Tris NTA; without FtsZ; Mean, n = 3 (R286W-His6 n = 4)): 17.68%
FRET efficiency (2% Tris NTA; + FtsZ; Exp1): 32.05%
FRET efficiency (2% Tris NTA; + FtsZ; Exp2): 31.95%
FRET efficiency (2% Tris NTA; + FtsZ; Mean, n = 2): 32.00%
FRET efficiency (2% Tris NTA; without FtsZ; Exp1): 32.49%
FRET efficiency (2% Tris NTA; without FtsZ; Exp2): 23.34%
FRET efficiency (2% Tris NTA; without FtsZ; Mean, n = 2): 27.92%
FRET efficiency (Tris 0.40 %, + FtsZ; mean): 10.12%
FRET efficiency (Tris 0.40 %, without FtsZ; mean): 9.50%
FRET efficiency (Tris 0.60 %, + FtsZ; mean): 16.97%
FRET efficiency (Tris 0.60 %, without FtsZ; mean): 16.11%
FRET efficiency (Tris 0.80 %, + FtsZ; mean): 16.06%
FRET efficiency (Tris 0.80 %, without FtsZ; mean): 15.48%
FRET efficiency (Tris 1.00 %, + FtsZ; mean): 19.51%
FRET efficiency (Tris 1.00 %, without FtsZ; mean): 17.68%
FRET efficiency (Tris 2.00 %, + FtsZ; mean): 32.00%
FRET efficiency (Tris 2.00 %, without FtsZ; mean): 27.92%
FRET efficiency (Tris […], + FtsZ; mean): 28.93%
FRET efficiency (Tris […], without FtsZ; mean): 25.95%
FRET efficiency ([…] Tris NTA, + FtsZ; Exp1): 2.38%
FRET efficiency ([…] Tris NTA, + FtsZ; Exp2): 10.40%
FRET efficiency ([…] Tris NTA, + FtsZ; mean, n = 2): 6.39%
FRET efficiency ([…] Tris NTA, without FtsZ; Exp1): 3.80%
FRET efficiency ([…] Tris NTA, without FtsZ; Exp2): 9.45%
FRET efficiency ([…] Tris NTA, without FtsZ; mean, n = 2; listed as FtsA WT-His6): 6.62%
FRET efficiency ([…] Tris NTA, without FtsZ; mean, n = 2; listed as WT-His6): 6.63%
FRET efficiency ([…] Tris NTA; + FtsZ; Exp1): 34.73%
FRET efficiency ([…] Tris NTA; + FtsZ; Exp2): 27.23%
FRET efficiency ([…] Tris NTA; + FtsZ; Exp3): 24.81%
FRET efficiency ([…] Tris NTA; + FtsZ; Mean, n = 3): 28.93%
FRET efficiency ([…] Tris NTA; without FtsZ; Exp1): 28.26%
FRET efficiency ([…] Tris NTA; without FtsZ; Exp2): 26.94%
FRET efficiency ([…] Tris NTA; without FtsZ; Exp3): 22.66%
FRET efficiency ([…] Tris NTA; without FtsZ; Mean, n = 3): 25.95%
FRET efficiency ([…] Tris-NTA; + N (FtsNcyto); mean): 26.95%
FRET efficiency ([…] Tris-NTA; + N/Z (FtsNcyto and FtsZ); mean): 24.12%
FRET efficiency ([…] Tris-NTA; + N/Z; Exp. 1): 22.20%
FRET efficiency ([…] Tris-NTA; + N/Z; Exp. 2): 29.86%
FRET efficiency ([…] Tris-NTA; + N/Z; Exp. 3): 20.31%
FRET efficiency ([…] Tris-NTA; + N; Exp. 1): 28.94%
FRET efficiency ([…] Tris-NTA; + N; Exp. 2): 24.96%
FRET efficiency ([…] Tris-NTA; + N; Exp. 3): 26.96%
FRET efficiency ([…] Tris-NTA; + Z (FtsZ); mean): 27.70%
FRET efficiency ([…] Tris-NTA; + Z; Exp. 1): 34.73%
FRET efficiency ([…] Tris-NTA; + Z; Exp. 2): 27.23%
FRET efficiency ([…] Tris-NTA; + Z; Exp. 3): 24.81%
FRET efficiency ([…] Tris-NTA; + Z; Exp. 4): 24.02%
FRET efficiency ([…] Tris-NTA; alone; Exp. 1): 28.26%
FRET efficiency ([…] Tris-NTA; alone; Exp. 2): 26.94%
FRET efficiency ([…] Tris-NTA; alone; Exp. 3): 22.66%
FRET efficiency ([…] Tris-NTA; alone; Exp. 4): 20.84%
FRET efficiency ([…] Tris-NTA; alone; mean): 24.68%
